Test results as given in patent US9738902B2, “Modified PYR/PYL receptors activated by ligands” (priority 2013, dated 2017).

Columns and labels:
[1] = target: T1, 6×-His-GFP-PYR1^MANDI and GFP-HAB1 (Arabidopsis thaliana, UniProt O49686, F108A/F159L/K59R/S122G/V81I/Y58H); assay: co-precipitation after transient co-expression in leaves; type: in vivo, Nicotiana benthamiana; details: 50 μM mandipropamid, 20 hours
T1 construct: expressed in transfected cells; host or cells: Nicotiana benthamiana leaves, Agrobacterium tumefaciens GV3101 infiltration
Description: We therefore investigated if the mandipropamid promoted interaction between PYR1^MANDI and the PP2C HAB1 could be observed using similar experiments. To conduct these experiments PYR1^MANDI was cloned as a 6×-His-GFP fusion protein in the vector pEGAD (Cutler et al., 2000). HAB1 was cloned as a GFP fusion protein in the vector pEGAD. Both constructs were transformed into Agrobacterium tumefaciens (GV3101) and utilized in transient expression experiments. The Agrobacterium strains harboring the receptor, PP2C and the silencing suppressor p19 were mixed together in ratios corresponding to 0.1, 1.0 and 0.5 final OD600 units respectively. The mixture was infiltrated into two separate N. benthamiana leaves and 2 days later the leaves were treated with either 50 μM mandipropamid or mock solutions made in water containing 0.02% Silwet L-77. 20 hours later the leaves were homogenized in liquid nitrogen, re-suspended in an extraction buffer composed of 1×TBS, 0.1% NP-40, 1 mM DTT, 10% glycerol, and 1× plant protease inhibitor cocktail (Sigma, USA) and clarified by centrifugation. […] Both PYR1^MANDI and HAB1 were expressed as GFP fusion proteins and could therefore be detected with an anti-GFP antibody. The blots were probed with an anti-GFP monoclonal primary antibody and detected using an anti-mouse IgG-HP sheep secondary antibody using ECL (Amersham, USA) development.

[2] = tested on: 35S::PYR1^MANDI lines MDP1, MDP2, MDP3; assay: seed germination assay, 250 nM mandipropamid; type: in vivo, Arabidopsis; details: 3 days post-stratification
Description: To further characterize the physiological effects of the PYR1^MANDI/mandipropamid interaction, we characterized three independently generated transgenic Arabidopsis lines in more detail. These lines, initially named E9, E16 and E31 are henceforth referred to as MPD1, MPD2 and MPD3. Each of these lines is homozygous for a single 35S::PYR1^MANDI insertion site and is the result of independent transformation events. We first used germination assays to characterize the relative mandipropamid sensitivity of these lines. Seeds for the transgenics and wild type control were surface sterilized with bleach and then stratified for 4 days at 4° C. on 0.7% agar petri plates containing ½ MS salts and 0.5% sucrose in addition to either 250 nM mandipropamid or a mock treatment of 0.1% DMSO (the carrier solvent). After stratification, the plates were transferred to a growth chamber operating on a 16-hour day length cycle. Seed germination was scored 3 days post-stratification. […] To more definitively assess the relative sensitivity of the MDP1 and MDP2 lines to mandipropamid, we conducted germination dose-response experiments (using the same procedure described above) and confirmed that the MDP1 line is more sensitive to mandipropamid than MDP2 (FIG. 7B).

[3] = tested on: MDP1 and MDP2 transgenic genotypes; assay: root growth inhibition assay; type: in vivo, Arabidopsis; details: MDP1 and MDP2, 72 hours after transfer
Description: (§1) Given the relatively high mandipropamid sensitivity of the MDP1 and MDP2 transgenic lines, these lines were subjected to further physiological characterization. One of ABA's physiological effects is to inhibit root growth. Mandipropamid should therefore inhibit root growth in the MDP1 and MDP2 transgenic lines, but not wild type, if it is successfully activating this ABA response. To test this, seeds of the wild type, PYR1-OX, MDP1 and MDP2 genotypes were surface sterilized in bleach and plated on to 0.7% agar petri plates containing ½ MS salts and 0.5% sucrose. After 4 days of stratification at 4° C., the plates were transferred to a growth chamber operating on a 16-hour day length cycle and allowed to germinate for 24 hours and then transferred to petri plates (0.7% agar containing ½ MS salts and 0.5% sucrose) supplemented with differing concentrations of mandipropamid. These plates were then grown vertically in a growth chamber operating on a 16-hour day length cycle. The amount of root growth after transfer was measured 72-hours later after transfer.

PYR1-OX = assay: root growth inhibition assay; type: in vivo, Arabidopsis; details: 72 hours after transfer
Description: as §1

wild type = assay: root growth inhibition assay; type: in vivo, Arabidopsis; details: 72 hours after transfer
Description: as §1

T1 sequence (O49686 whole entry Y58H/K59R/V81I/F108A/S122G/F159L): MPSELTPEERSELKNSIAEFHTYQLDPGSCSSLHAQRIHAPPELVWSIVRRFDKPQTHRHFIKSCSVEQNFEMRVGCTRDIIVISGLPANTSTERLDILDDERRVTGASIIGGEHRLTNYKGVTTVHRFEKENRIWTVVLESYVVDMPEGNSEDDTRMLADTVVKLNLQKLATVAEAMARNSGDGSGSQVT
T1 sequence (Q9CAJ0 23-511 partner): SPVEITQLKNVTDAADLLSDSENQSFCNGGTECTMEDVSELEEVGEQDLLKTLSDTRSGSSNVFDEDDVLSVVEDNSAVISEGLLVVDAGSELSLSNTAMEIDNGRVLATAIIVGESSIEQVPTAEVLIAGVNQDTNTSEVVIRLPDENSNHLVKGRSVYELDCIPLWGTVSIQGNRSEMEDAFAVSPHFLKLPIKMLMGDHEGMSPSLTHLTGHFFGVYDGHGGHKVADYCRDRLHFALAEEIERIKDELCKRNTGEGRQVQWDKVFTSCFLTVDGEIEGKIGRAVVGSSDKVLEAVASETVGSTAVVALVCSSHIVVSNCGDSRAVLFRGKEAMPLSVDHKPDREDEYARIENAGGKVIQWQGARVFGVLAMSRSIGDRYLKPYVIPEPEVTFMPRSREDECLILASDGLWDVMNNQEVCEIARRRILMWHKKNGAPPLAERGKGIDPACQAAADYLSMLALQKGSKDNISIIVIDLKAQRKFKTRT

For C#CCOc1ccc(CCNC(=O)C(OCC#C)c2ccc(Cl)cc2)cc1OC (stereo not drawn) [Mandipropamid, mandipropamid], the “interaction of 6×-His-GFP-PYR1^MANDI and GFP-HAB1 in planta” value [1] was “mandipropamid-dependent physical interaction”, the seed germination ([2]; MDP1 seed, 250 nM mandipropamid) was “near complete germination inhibition” and the seed germination ([2]; MDP3, 250 nM mandipropamid) was “minimal sensitivity”. For the same compound, the root growth [3] was “inhibited”, the root growth (PYR1-OX) was “negligible inhibition” and the root growth (wild type) was “negligible inhibition”.
